ChEMBL document CHEMBL1201862, “PubChem BioAssay data set” (2004)
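Results reflect a 48-hour exposure of cells in 96-well plates to compound at five concentrations. GI50 = concentration required for 50% inhibition of growth.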 The source made the active and inactive calls. No stated cut-off is given here; in the data, active = GI50 up to about 1.1 µM and inactive = higher.

Assays:
Assay in all cases: DTP human tumour cell line panel, 48 h
HCC 2998 = tested on: HCC 2998
HT-29 = tested on: HT-29
HCT-15 = tested on: HCT-15
NCI-H226 = tested on: NCI-H226
M19-MEL = tested on: M19-MEL
U-251 = tested on: U-251
SK-MEL-28 = tested on: SK-MEL-28
UACC-257 = tested on: UACC-257
OVCAR-3 = tested on: OVCAR-3
EKVX = tested on: EKVX
SF-268 = tested on: SF-268
RPMI-8226 = tested on: RPMI-8226
TK-10 = tested on: TK-10
786-0 = tested on: 786-0
K562 = tested on: K562
SK-MEL-5 = tested on: SK-MEL-5

SMILES	GI50 (HCC 2998)	GI50 (HT-29)	GI50 (HCT-15) [µM]	GI50 (NCI-H226)	GI50 (M19-MEL)	GI50 (U-251)	GI50 (SK-MEL-28)	GI50 (UACC-257)	GI50 (OVCAR-3)	GI50 (EKVX)	GI50 (SF-268)	GI50 (RPMI-8226)	GI50 (TK-10)	GI50 (786-0)	GI50 (K562)	GI50 (SK-MEL-5)
CC1CC(c2ccc(Cl)cc2)=Nc2ccccc2S1 (stereo unspecified)	> 100 µM (inactive)	> 100 µM (inactive)	> 100	> 100 µM (inactive)	> 100 µM (inactive)	> 100 µM (inactive)	> 100 µM (inactive)	> 100 µM (inactive)	> 100 µM (inactive)	> 100 µM (inactive)	> 100 µM (inactive)	> 100 µM (inactive)	> 100 µM (inactive)	> 100 µM (inactive)	> 100 µM (inactive)	
NC(=S)N/N=C(\C(=O)Nc1ccc(Cl)c(Cl)c1)C1=NN(c2ccccc2)C(c2cccc([N+](=O)[O-])c2)CC1=O (stereo unspecified)	40.6 µM (inactive)	16.5 µM (inactive)	30.8	25.9 µM (inactive)	18.4 µM (inactive)	4.31 µM (inactive)	52.5 µM (inactive)	30.2 µM (inactive)	20.6 µM (inactive)	> 100 µM (inactive)	38.5 µM (inactive)	3.37 µM (inactive)	> 100 µM (inactive)	17.6 µM (inactive)	17.9 µM (inactive)	> 100 µM (inactive)
N#CC(C(=O)/C(=N\Nc1nc(S)nn1N)C(C#N)c1ccc(Cl)cc1)c1ccc(Cl)cc1 (stereo unspecified)	> 100 µM (inactive)	> 100 µM (inactive)	> 100	> 100 µM (inactive)	> 100 µM (inactive)	> 100 µM (inactive)	> 100 µM (inactive)	> 100 µM (inactive)	> 100 µM (inactive)	> 100 µM (inactive)	> 100 µM (inactive)	> 100 µM (inactive)	> 100 µM (inactive)	> 100 µM (inactive)		
N#Cc1ccc(C(C2C(=O)NC(=O)NC2=O)C2C(=O)NC(=O)NC2=O)cc1	> 100 µM (inactive)	> 100 µM (inactive)	> 100	> 100 µM (inactive)	> 100 µM (inactive)	> 100 µM (inactive)	> 100 µM (inactive)	> 100 µM (inactive)	> 100 µM (inactive)	> 100 µM (inactive)	> 100 µM (inactive)	> 100 µM (inactive)	> 100 µM (inactive)	> 100 µM (inactive)	77.1 µM (inactive)	> 100 µM (inactive)
CCC/C(=N/NC(=O)C(N)=O)C(CC)C(=O)CCC(=O)N(Cc1ccccc1)Cc1ccccc1 (stereo unspecified)	> 100 µM (inactive)	> 100 µM (inactive)	> 100	> 100 µM (inactive)	> 100 µM (inactive)	> 100 µM (inactive)	> 100 µM (inactive)	> 100 µM (inactive)	> 100 µM (inactive)	> 100 µM (inactive)	> 100 µM (inactive)	> 100 µM (inactive)	> 100 µM (inactive)	> 100 µM (inactive)	> 100 µM (inactive)	> 100 µM (inactive)
CCN1CCN(c2ccc(Nc3ccnc4ccc5nn(C)nc5c34)cc2)CC1	13.2 µM (inactive)	4.26 µM (inactive)	13.8	12.3 µM (inactive)	16.1 µM (inactive)	13.5 µM (inactive)	16.6 µM (inactive)	16.6 µM (inactive)	13.5 µM (inactive)		14.9 µM (inactive)	7.08 µM (inactive)	17.5 µM (inactive)	10.4 µM (inactive)	5.12 µM (inactive)	15.2 µM (inactive)
O=C(O)CCc1nn2c(nc1=O)sc1ccc3ccccc3c12	> 100 µM (inactive)	> 100 µM (inactive)	> 100	> 100 µM (inactive)	> 100 µM (inactive)	> 100 µM (inactive)	> 100 µM (inactive)	> 100 µM (inactive)	> 100 µM (inactive)	> 100 µM (inactive)	> 100 µM (inactive)	> 100 µM (inactive)	> 100 µM (inactive)	> 100 µM (inactive)	> 100 µM (inactive)	> 100 µM (inactive)
Cc1cccc2c(=O)cc(-c3ccccc3)[nH]c12	4.39 µM (inactive)	3.1 µM (inactive)	4.23	20.2 µM (inactive)	4.61 µM (inactive)	21.9 µM (inactive)	> 100 µM (inactive)	5.22 µM (inactive)	3.31 µM (inactive)	46.2 µM (inactive)	8.15 µM (inactive)	5.4 µM (inactive)	> 100 µM (inactive)	4.78 µM (inactive)	2 µM (inactive)	2.36 µM (inactive)
O=C1C2=C(SCCS2)C(=O)c2ccccc21	1.65 µM (inactive)	2.18 µM (inactive)	1.7	2.08 µM (inactive)	0.236 µM (active)	1.64 µM (inactive)	1.85 µM (inactive)	1.95 µM (inactive)	1.71 µM (inactive)	1.39 µM (inactive)	1.66 µM (inactive)	1.79 µM (inactive)	1.84 µM (inactive)	1.74 µM (inactive)	1.77 µM (inactive)	1.69 µM (inactive)
Cc1cc2c(=O)cc(-c3ccncc3)oc2c(C(N)=O)c1C	> 100 µM (inactive)	> 100 µM (inactive)	> 100	> 100 µM (inactive)	> 100 µM (inactive)	> 100 µM (inactive)	> 100 µM (inactive)	> 100 µM (inactive)	> 100 µM (inactive)	> 100 µM (inactive)	> 100 µM (inactive)	> 100 µM (inactive)	> 100 µM (inactive)	> 100 µM (inactive)		
CCOC(=O)NC(=O)c1cn(C2OC(COC(=O)CCCCCCCCC(=O)OCC3OC(n4cc(C(=O)NC(=O)OCC)c(=O)[nH]c4=O)C(O)C3O)C(O)C2O)c(=O)[nH]c1=O (stereo unspecified)	> 100 µM (inactive)	> 100 µM (inactive)	> 100	> 100 µM (inactive)	> 100 µM (inactive)		> 100 µM (inactive)	> 100 µM (inactive)	> 100 µM (inactive)	> 100 µM (inactive)	> 100 µM (inactive)	> 100 µM (inactive)	> 100 µM (inactive)	> 100 µM (inactive)	> 100 µM (inactive)	> 100 µM (inactive)
COC1OC(OC)C2C(c3c(C)cc(C)cc3C)=NOC12 (stereo unspecified)	> 100 µM (inactive)	> 100 µM (inactive)	> 100	> 100 µM (inactive)	> 100 µM (inactive)	20.3 µM (inactive)	> 100 µM (inactive)	> 100 µM (inactive)	> 100 µM (inactive)	> 100 µM (inactive)	> 100 µM (inactive)	> 100 µM (inactive)	> 100 µM (inactive)	> 100 µM (inactive)	> 100 µM (inactive)	> 100 µM (inactive)
CCOC(=O)CCC(NC(=O)c1ccc(NC(OC)c2nc3cc(C(F)(F)F)ccc3nc2-c2ccccc2)cc1)C(=O)OCC (stereo unspecified)	15.8 µM (inactive)	7.93 µM (inactive)	14.3	18.6 µM (inactive)	14.7 µM (inactive)	15.6 µM (inactive)	17.3 µM (inactive)	16.3 µM (inactive)	18.5 µM (inactive)	18 µM (inactive)	16.6 µM (inactive)	6.41 µM (inactive)	21 µM (inactive)	12.7 µM (inactive)	2.89 µM (inactive)	16.3 µM (inactive)
